Active and inactive are the calls of the source. The calls are words filed in the database; no cut-off is given here. Where a SMILES comes first, the peptide text is derived from it. The star is where a group is joined. X1 = CCCCCCCCCCCCCCC(=O)O*
Assays:
[1] = Inhibition of gp41 in HIV1 3B infected in human HeLa-MAGI-CCR5 cells harboring reporter gene comprising HIV1 LTR in the upstream and lacZ gene of Escherichia coli in the downstream assessed as inhibition of cell-cell fusion by optical microscopy analysis; assay type: cell-based; conditions: Human immunodeficiency virus 1, 3B
[2] = system: Human immunodeficiency virus 1; assay: Binding affinity to gp41 NHR helix in HIV1 assessed as interaction between compound-gp41 5-helix causing band deviation incubated for 1 hr by SDS-PAGE analysis
[3] = system: Human immunodeficiency virus 1; assay: Binding affinity to gp41 NHR helix in HIV1 assessed as interaction between compound-gp41 5-helix causing band deviation incubated for 1 hr by native PAGE analysis
[4] = system: Human immunodeficiency virus 1; assay: Binding affinity to gp41 NHR helix in HIV1 assessed as inhibition of gp41 6-helix conformation incubated for 1 hr by SDS-PAGE analysis
[5] = system: Human immunodeficiency virus 1; assay: Binding affinity to gp41 NHR helix in HIV1 assessed as inhibition of gp41 6-helix conformation incubated for 1 hr by native PAGE analysis

Compound	IC50 [1] [nM]	other results
CC[C@H](C)[C@H](NC(=O)[C@H](CC(C)C)NC(=O)[C@H](CCC(=O)O)NC(=O)[C@H](CCC(=O)O)NC(=O)[C@@H](NC(=O)[C@H](CCCCN)NC(=O)[C@H](CCCCN)NC(=O)[C@@H](NC(=O)[C@H](Cc1ccc(O)cc1)NC(=O)[C@H](CCCNC(=N)N)NC(=O)[C@H](CCC(=O)O)NC(=O)[C@@H](NC(=O)[C@H](CCC(=O)O)NC(=O)[C@H](CC(=O)O)NC(=O)[C@H](CCCNC(=N)N)NC(=O)[C@H](Cc1c[nH]c2ccccc12)NC(=O)[C@H](CC(=O)O)NC(=O)[C@H](CS)NC(=O)[C@H](Cc1c[nH]c2ccccc12)NC(=O)[C@@H](NC(=O)[C@@H](N)CCSC)[C@@H](C)O)[C@@H](C)CC)[C@@H](C)O)[C@@H](C)CC)C(=O)N[C@@H](CCCNC(=N)N)C(=O)N[C@@H](C)C(=O)N[C@@H](C)C(=O)N[C@@H](CCC(N)=O)C(=O)N[C@@H](CCC(=O)O)C(=O)N[C@@H](CC(C)C)C(=O)N[C@@H](CCC(N)=O)C(=O)N[C@@H](CCC(=O)O)C(=O)N[C@@H](CCCCN)C(=O)N[C@@H](CC(N)=O)C(=O)N[C@@H](CCC(=O)O)C(=O)N[C@@H](C)C(=O)N[C@@H](C)C(=O)N[C@@H](CC(C)C)C(=O)N[C@@H](CCCCN)C(=O)N[C@@H](CCC(=O)O)C(=O)N[C@@H](CC(C)C)C(=O)O	159	
CC[C@H](C)[C@H](NC(=O)[C@H](CC(C)C)NC(=O)[C@H](CCC(=O)O)NC(=O)[C@H](CCC(=O)O)NC(=O)[C@@H](NC(=O)[C@H](CCCCN)NC(=O)[C@@H](CCCCN)NC(=O)[C@@H](NC(=O)[C@H](Cc1ccc(O)cc1)NC(=O)[C@H](CCCNC(=N)N)NC(=O)[C@H](CCC(=O)O)NC(=O)[C@@H](NC(=O)[C@H](CCC(=O)O)NC(=O)[C@H](CC(=O)O)NC(=O)[C@H](CCCNC(=N)N)NC(=O)[C@H](Cc1c[nH]c2ccccc12)NC(=O)[C@H](CC(=O)O)NC(=O)[C@H](CS)NC(=O)[C@H](Cc1c[nH]c2ccccc12)NC(=O)[C@@H](NC(=O)[C@@H](N)CCSC)[C@@H](C)O)[C@@H](C)CC)[C@@H](C)O)[C@@H](C)CC)C(=O)N[C@@H](CCCNC(=N)N)C(=O)N[C@@H](C)C(=O)N[C@@H](C)C(=O)N[C@@H](CCC(N)=O)C(=O)N[C@@H](CCC(=O)O)C(=O)N[C@@H](CC(C)C)C(=O)N[C@@H](CCC(N)=O)C(=O)N[C@@H](CCC(=O)O)C(=O)N[C@@H](CCCCN)C(=O)N[C@@H](CC(N)=O)C(=O)N[C@@H](CCC(=O)O)C(=O)N[C@@H](C)C(=O)N[C@@H](C)C(=O)N[C@@H](CC(C)C)C(=O)N[C@@H](CCCCN)C(=O)N[C@@H](CCC(=O)O)C(=O)N[C@@H](CC(C)C)C(=O)O	57.2	
CCCCCCCCCCCCCCC(=O)OC(=O)[C@H](CCC(N)=O)NC(=O)[C@H](CCC(N)=O)NC(=O)[C@H](CCCNC(=N)N)NC(=O)[C@H](CCC(N)=O)NC(=O)[C@H](C)NC(=O)[C@H](CC(=O)O)NC(=O)[C@H](CCCCN)NC(=O)[C@@H](NC(=O)[C@H](CC(C)C)NC(=O)[C@H](C)NC(=O)[C@H](CCC(=O)O)NC(=O)[C@@H](NC(=O)[C@H](CC(N)=O)NC(=O)[C@H](CCCNC(=N)N)NC(=O)[C@@H](NC(=O)[C@H](Cc1ccc(O)cc1)NC(=O)[C@H](CC(N)=O)NC(=O)[C@H](CCC(=O)O)NC(=O)[C@@H](NC(=O)[C@H](CCC(=O)O)NC(=O)[C@H](CCCNC(=N)N)NC(=O)[C@H](CC(=O)O)NC(=O)[C@H](Cc1c[nH]c2ccccc12)NC(=O)[C@H](CCC(N)=O)NC(=O)[C@H](CCC(=O)O)NC(=O)[C@H](Cc1c[nH]c2ccccc12)NC(=O)[C@@H](NC(=O)[C@H](CCCCN)NC(=O)[C@H](CC(N)=O)NC(=O)[C@H](CC(N)=O)NC(=O)[C@H](Cc1c[nH]c2ccccc12)NC(=O)[C@H](CCC(=O)O)NC(=O)[C@@H](N)CCC(N)=O)[C@@H](C)O)[C@@H](C)CC)C(C)C)[C@@H](C)CC)[C@@H](C)CC (H-QEWNNKTWEQWDREIENYVRNIEALIKDAQRQQ-X1)	222	
H-MTWCDWRDEIERYTKKIEELIRAAQEWQEKNEAALKEL-OH	53	Activity [2]: Active; Activity [3]: Active; inhibition [4]: Active; inhibition [5]: Active
H-QEWNNKTWEQWDREIENYVRNIEALIKDAQRQQ-OH	866	
H-RAWVAWRNKIDRYTKKIEELIRELIRAAQELQEKNEAALKEL-OH	338	
H-RAWVAWRNKIENYTRRIEELIEELIRRSQEQERRQ-OH	> 2430	
H-SIWNNMTWCDWRDEIEEYTKKIEELIKKSQEQASWNWF-OH	203	
H-VEWNARAWVAWRNRIENYAKKIEKLIRQSQEQQ-OH	1000	

From ChEMBL document CHEMBL4715692, “Design, synthesis and activity evaluation of novel peptide fusion inhibitors targeting HIV-1 gp41” (Bioorg Med Chem, 2016)
